The target in data set [1] is T1, KEAP1-SNAP protein (Homo sapiens, UniProt P16455+Q14145, A127T/A154D/C150Q/C62A/E30R/G131K/G132T/G153L/K125A/K32I/L33F/M134L/N157G/Q115S/Q116H/R128A/R135S/S151G/S152D/S159E).
T1 construct: expressed in transfected cells; host or cells: HEK293T, lentiviral transduction with pDC-006, blasticidin selection
Nature of the data set: Probe dose response: labeling of KEAP1-SNAP fusion in live cells (Western blot). The class given is cell-based. As for the experimental part:
PP1 close response and viability assay: Dose response—Each well of a 6-well plate was seeded with 300,000 HEK293T cells stably expressing either SNAP-FLAG or KEAP-SNAP. After reaching ˜90% confluency the growth media was removed, cells washed with DPBS, and treated with varying concentrations (0, 0.5, 1, 5, 15, 45 μM) of photoproximity probe PP1 in 500 μL serum-free DMEM for 2 hours at 37° C. Post treatment, media was aspirated and non-reacted probe washed out with 3 mL full DMEM over 40 minutes, changing the media twice. Cells were harvested, washed, and lysed in DPBS containing protease inhibitor using a tip sonicator. Lysate was normalized to 1 mg/mL then diluted with loading buffer and run on SDS-PAGE gel that was transferred by western blot to nitrocellulose. The nitrocellulose membrane was stained for biotin and Flag-Tag using streptavidin IR dye (Li-cor #926-32230; Li-cor Biosciences, Lincoln, Nebr., United States of America) and anti-Flag (Sigma #F3165, Sigma-Aldrich, St. Louis, Mo., United States of America; Li-cor #926-68072, Li-cor Biosciences, Lincoln, Nebr., United States of America). Fluorescence images were collected using an Odyssey infrared imager (Li-cor Biosciences, Lincoln, Nebr., United States of America).
Both C- and N-terminal SNAP-Tag fusions of full-length, human KEAP1, in each case separated by a short linker were cloned. […] Both C- and N-terminal SNAP fusions were functional, as indicated by dose-dependent labeling with PP1 in live cells. […] Finally, it was expected that identification of probe-labeled binding partners, and therefore proteins proximal to KEAP1 in cells, would be improved by quantitative proteomic differentiation of enriched vs. background proteins. Therefore, SILAC-labeled cultures expressing both N-terminal (referred to as SNAP-KEAP1) and C-terminal (referred to as KEAP1-SNAP) fusion proteins with light and heavy arginine and lysine were prepared. Matched cultures of heavy and light cells, each expressing the same SNAP-KEAP1 or KEAP1-SNAP construct, were then treated with PP1 probe or vehicle for 2 hr. […]
(In general: In western blotting, separated proteins are transferred to a membrane and probed.)

Data set [2] concerns the target T2, FLAG-tagged SNAP-Tag protein (SNAP-FLAG) (Homo sapiens, UniProt P16455, A127T/A154D/C150Q/C62A/E30R/G131K/G132T/G153L/K125A/K32I/L33F/M134L/N157G/Q115S/Q116H/R128A/R135S/S151G/S152D/S159E).
T2 construct: expressed in transfected cells
T2 sequence (P16455 1-182 E30R/K32I/L33F/C62A/Q115S/Q116H/K125A/A127T/R128A/G131K/G132T/M134L/R135S/C150Q/S151G/S152D/G153L/A154D/N157G/S159E limits assumed): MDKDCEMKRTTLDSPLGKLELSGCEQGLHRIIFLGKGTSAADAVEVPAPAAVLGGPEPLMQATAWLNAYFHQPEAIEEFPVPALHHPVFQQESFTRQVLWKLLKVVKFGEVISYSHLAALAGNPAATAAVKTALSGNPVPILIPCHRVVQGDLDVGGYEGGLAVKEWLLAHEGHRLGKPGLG
Nature of the data set: PP1 dose response: covalent labeling of SNAP-FLAG in live cells (Western blot). The class given is cell-based. Particulars: HEK293T cells stably expressing SNAP-FLAG, increasing doses for two hours, not irradiated. On the procedure:
PP1 close response and viability assay: Dose response—Each well of a 6-well plate was seeded with 300,000 HEK293T cells stably expressing either SNAP-FLAG or KEAP-SNAP. After reaching ˜90% confluency the growth media was removed, cells washed with DPBS, and treated with varying concentrations (0, 0.5, 1, 5, 15, 45 μM) of photoproximity probe PP1 in 500 μL serum-free DMEM for 2 hours at 37° C. Post treatment, media was aspirated and non-reacted probe washed out with 3 mL full DMEM over 40 minutes, changing the media twice. Cells were harvested, washed, and lysed in DPBS containing protease inhibitor using a tip sonicator. Lysate was normalized to 1 mg/mL then diluted with loading buffer and run on SDS-PAGE gel that was transferred by western blot to nitrocellulose. The nitrocellulose membrane was stained for biotin and Flag-Tag using streptavidin IR dye (Li-cor #926-32230; Li-cor Biosciences, Lincoln, Nebr., United States of America) and anti-Flag (Sigma #F3165, Sigma-Aldrich, St. Louis, Mo., United States of America; Li-cor #926-68072, Li-cor Biosciences, Lincoln, Nebr., United States of America). Fluorescence images were collected using an Odyssey infrared imager (Li-cor Biosciences, Lincoln, Nebr., United States of America). […]

Molecules are shown by their SMILES.

T1 sequence (Q14145+P16455 fused with the stated changes): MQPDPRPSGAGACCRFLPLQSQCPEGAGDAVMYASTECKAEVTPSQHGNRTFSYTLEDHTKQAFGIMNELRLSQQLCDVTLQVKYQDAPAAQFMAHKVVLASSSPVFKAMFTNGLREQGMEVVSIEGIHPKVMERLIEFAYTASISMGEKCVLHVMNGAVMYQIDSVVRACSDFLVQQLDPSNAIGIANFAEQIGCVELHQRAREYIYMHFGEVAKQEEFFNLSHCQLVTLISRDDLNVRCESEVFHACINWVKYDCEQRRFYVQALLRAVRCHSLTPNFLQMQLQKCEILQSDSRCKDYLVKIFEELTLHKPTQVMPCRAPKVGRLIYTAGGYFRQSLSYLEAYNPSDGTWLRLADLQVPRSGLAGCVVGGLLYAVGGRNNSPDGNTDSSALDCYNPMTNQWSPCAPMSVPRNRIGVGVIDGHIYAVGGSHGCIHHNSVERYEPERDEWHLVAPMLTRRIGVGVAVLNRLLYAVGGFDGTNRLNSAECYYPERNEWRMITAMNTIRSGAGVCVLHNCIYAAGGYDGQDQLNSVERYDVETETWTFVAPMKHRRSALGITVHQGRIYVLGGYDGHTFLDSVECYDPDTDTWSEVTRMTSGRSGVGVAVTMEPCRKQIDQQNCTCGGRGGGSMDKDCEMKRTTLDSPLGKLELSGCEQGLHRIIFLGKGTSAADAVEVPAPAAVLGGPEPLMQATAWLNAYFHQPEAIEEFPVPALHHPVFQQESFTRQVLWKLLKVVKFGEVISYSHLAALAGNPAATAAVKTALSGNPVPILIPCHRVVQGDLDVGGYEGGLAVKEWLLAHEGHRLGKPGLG

Regarding `COc1cc(COC(=O)NC(CCCCNC(=O)CCC2(C)N=N2)C(=O)NCCCCC2SCC3NC(=O)NC32)c([N+](=O)[O-])cc1OCCCC(=O)NCc1ccc(COc2nc(N)nc3[nH]cnc23)cc1` (stereo not shown) [AC1], in data set [1] (AC1 0-50 μM, 1 or 2 hours, live HEK293T cells), the “Concentration at which protein is labeled” value was “low micromolar concentrations”. In addition, in data set [1] (AC1, biotin-labeling of SNAP-FLAG-KEAP1 in live HEK293T cells), the Cell permeability result is reported as “cell permeable”.

Broadly, the EC50 is the concentration giving half of the maximal effect. The low end stands for higher potency in that assay, the high end for lower potency in that assay. On to `COc1cc(C(C)OC(=O)NC(CCCCNC(=O)CCC2(C)N=N2)C(=O)NCCCCCNC(=O)CCCCC2SCC3NC(=O)NC32)c([N+](=O)[O-])cc1OCCCC(=O)NCc1ccc(COc2nc(N)nc3[nH]cnc23)cc1` (stereo not shown) [PP1], for which the “EC50 of KEAP1-SNAP fusion labeling” value in data set [1] (PP1, live HEK293T cells, 2 hr, not irradiated) is “low micromolar”. The compound also had an EC50 in data set [2] of 4.5 µM.

Values taken from patent publication US20230137943A1, “PHOTOPROXIMITY PROFILING OF PROTEIN-PROTEIN INTERACTIONS IN CELLS” (The University of Chicago, priority 2019, published 2023).
